Source: paper PMC11403616, “Arcopilins: A New Family of Staphylococcus aureus Biofilm Disruptors from the Soil Fungus Arcopilus navicularis” (Journal of Medicinal Chemistry, 2024)
Converted amounts (≈) assume the structure as drawn. “Also recorded” adds a separate entry of the source. Where two headings read alike, the source gives them in different places.

Key:
B. subtilis DSM 10 = assay: MIC against bacteria (antimicrobial assay); type: cell-based, Bacillus subtilis; settings: for MIC: Bacillus subtilis, DSM10, DSM 10, – = no activity observed under test conditions; for MIC B. subtilis: supplement CSV, decimal comma, unit not given, in µg/mL
Experimental: (§1) The antimicrobial activities of compounds 1–7 (Acp A–G) were assessed against different bacterial and fungal strains in addition to their cytotoxic effects on two mammalian cell lines. The tested microorganisms comprised a diverse array of clinically relevant pathogens, encompassing sensitive indicator strains. Among the Gram-positive bacteria were Bacillus subtilis, Staphylococcus aureus, and Mycolicibacterium smegmatis. Gram-negative bacteria included Acinetobacter baumannii, Chromobacterium violaceum, Escherichia coli, and Pseudomonas aeruginosa. Additionally, filamentous fungi such as Mucor hiemalis and yeasts including Candida albicans, Wickerhamomyces anomalus, Rhodotorula glutinis, and Schizosaccharomyces pombe were included. Generally, all compounds presented similar biological properties, summarized in weak or no activity against fungal pathogens as well as weak to moderate inhibition of Gram-positive bacteria (Table 2).
(§2) The antimicrobial and cytotoxic assays were performed according to the methods reported previously.[57]

KB-3-1 (ACC 158) = assay: Cytotoxicity against mammalian cell lines; type: cell-based; settings: Homo sapiens
Experimental: as §1, §2

L929 (ACC 2) = assay: Cytotoxicity against mammalian cell lines; type: cell-based; settings: Mus musculus
Experimental: as §1, §2

S. aureus DSM 346 = assay: MIC against bacteria (antimicrobial assay); type: cell-based, Staphylococcus aureus; settings: for MIC: Staphylococcus aureus, DSM346, DSM 346, – = no activity observed under test conditions; for MIC S. aureus: supplement CSV, decimal comma, unit not given, in µg/mL
Experimental: as §1, §2

two mammalian cell lines = assay: Cytotoxic effects on two mammalian cell lines (summary); type: cell-based; settings: KB-3-1 and L929
Experimental: as §1, §2

[1] = test system: preformed biofilms of S. aureus DSM 1104; assay: CFU count analysis, synergistic effects on preformed biofilms; type: cell-based, Staphylococcus aureus; settings: Acp A 7.8–3.9 μg/mL, GM 7.8–2 μg/mL, Vac 15.6–3.9 μg/mL
Experimental: The seed culture of S. aureus DSM 1104 was prepared as previously described, and the OD600 was adjusted to match the turbidity of a 0.001 McFarland standard. Then, 150 μL of bacterial solution in CASO with 4% glucose broth was incubated in 96-well tissue plates (TPP tissue culture ref no. 92196, Switzerland) for 24 h at 150 rpm. […] Methanol (2.5%) was used as the solvent control. The plates were incubated for a further 24 h at 37 °C. Colony-forming unit (CFU) count analysis of arcopilin A, antibiotics (vancomycin and gentamicin), and their combinations was performed as previously described.[58] Cells were suspended in the well 50 times. Dilution series in 1 to 10 steps (20 μL in 200 μL) were prepared down to a final dilution level of 10^–6, and 100 μL of this last dilution was platted on LB agar plates using 3 mm small glass beads (5 to 10, Omnilab, Germany) to homogeneously spread the liquid. Individual colonies on agar plates were counted after incubation at 30 °C for 24 and 48 h.[60] Afterward, CFUs were calculated by considering the dilution factors. Error bars indicate the SD of duplicate with two repeats.

[2] = test system: planktonic cells of S. aureus DSM 1104; assay: Checkerboard broth dilution assay (FICI); type: cell-based, Staphylococcus aureus
Excerpt: After assessing the effects of Acp A on the pathogen S. aureus, we delved deeper into the interaction of Acp A with established antibiotics (GM and Vac). This exploration focused on both planktonic cells and preformed biofilms of S. aureus. Consequently, we used a checkerboard assay to determine the fractional inhibitory concentration index (FICI) for combinations involving Acp A, GM, or Vac based on both their MIC values in combination.[49]
The interaction between arcopilin A, vancomycin, and gentamicin against S. aureus DSM 1104 was evaluated using a checkerboard broth dilution method to determine the fractional inhibitory concentration indices (FICIs), calculated as FIC = MIC of drug A in combination/MIC of drug A alone + MIC of drug B in combination/MIC of drug B alone.[59] The FICIs were interpreted as synergistic (FICI ≤ 0.5). For this assay, a seed culture was prepared as previously described to inoculate fresh CASO with 4% glucose broth to match the turbidity of a 0.1 McFarland standard suspension. Then, 100 μL of bacterial suspension was distributed in 96-well nontissue microtiter plates (TPP nontissue culture ref no. 92197, Switzerland). Arcopilin A (7.8–2 μg/mL) and antibiotics (vancomycin and gentamicin: 31.3–0.016 μg/mL) were added in increasing concentrations in columns and rows, respectively. The experiments were conducted in duplicate.

human cancer cell lines = settings: cited from earlier work
[3] = test system: preformed biofilms of S. aureus DSM 1104; assay: Disruption of preformed biofilms, crystal violet assay; type: cell-based, Staphylococcus aureus
Experimental: Therefore, Acp A–G were evaluated against preformed biofilms of S. aureus using crystal violet staining.[47]
Cultures of S. aureus DSM 1104 were prepared by inoculating 1 mL aliquots from a frozen stock (−20 °C) into 25 mL of CASO medium and incubating them overnight at 37 °C with shaking at 130 rpm.
The crystal violet assay was performed according to a previously reported procedure.[47] Arcopilins A–G were tested in serial dilutions (250–2 μg/mL), with methanol and microporenic acid A (MAA) as negative and positive controls, respectively. Statistical differences between samples and the controls were determined using a two-tailed Student’s t test, with statistical significance defined as p < 0.01. Statistical analysis was carried out using GraphPad Prism 9 (GraphPad Software, San Diego, CA).[58]

M. hiemalis DSM 2656 = assay: MIC against fungi (antimicrobial assay); type: cell-based, Mucor hiemalis; settings: for MIC: Mucor hiemalis, DSM2656, DSM 2656, – = no activity observed under test conditions; for MIC M. hiemalis: supplement CSV, decimal comma, unit not given, in µg/mL
Experimental: as §1, §2

[4] = test system: methicillin-resistant S. aureus (MRSA); settings: cited from earlier work
S. aureus = settings: cited from earlier work
[5] = test system: different bacterial and fungal strains; assay: Antimicrobial activities against bacterial and fungal strains (whole panel); type: cell-based; settings: whole panel of bacteria and fungi
Experimental: as §1, §2

M. smegmatis ATCC 700084 = assay: MIC against bacteria (antimicrobial assay); type: cell-based, Mycolicibacterium smegmatis
Experimental: as §1, §2

[6] = KB 3-1, ACC 158, – = no activity observed under test conditions, read-out: IC50 against mammalian cell lines, KB-3-1
[7] = L929, ACC 2, – = no activity observed under test conditions, read-out: IC50 against mammalian cell lines, L929

CC[C@H](C)[C@@H]1O[C@H](c2c(O)c(-c3ccccc3)cn(O)c2=O)[C@@H](C)C[C@@H]1C [Acp G, Arcopilin G]
MIC (B. subtilis DSM 10): 8.3 µg/mL (≈ 22.3 µM) | MIC B. subtilis (B. subtilis DSM 10): 8,3 | IC50 (KB-3-1 (ACC 158); [6]): 0.2 ng/mL (≈ 0.000538 µM) | IC50 (L929 (ACC 2); [7]): 0.024 ng/mL (≈ 6.46e-05 µM) | MIC (S. aureus DSM 346): 16.6 µg/mL (≈ 44.7 µM) | MIC S. aureus (S. aureus DSM 346): 16,6 | cytotoxic properties (in words) (two mammalian cell lines): most cytotoxic metabolite

CN[C@H](CC(C)C)C(=O)N[C@H]1C(=O)N[C@@H](CC(N)=O)C(=O)N[C@H]2C(=O)N[C@H]3C(=O)N[C@H](C(=O)N[C@H](C(=O)O)c4cc(O)cc(O)c4-c4cc3ccc4O)[C@H](O)c3ccc(c(Cl)c3)Oc3cc2cc(c3O[C@@H]2O[C@H](CO)[C@@H](O)[C@H](O)[C@H]2O[C@H]2C[C@](C)(N)[C@H](O)[C@H](C)O2)Oc2ccc(cc2Cl)[C@H]1O [Vac, vancomycin]
improvement in the inhibitory effects in combination with Acp A [1]: ~3 fold | increase of the potency of the antibiotic in combination with Acp A ([2]; Acp A 3.9 μg/mL, MIC alone versus in combination): ≤ 31 fold | MIC ([2]; Staphylococcus aureus, DSM1104, read-out: MIC of each single compound (MICs)): 2 µg/mL | MIC in combination (MICc), Acp A and Vac ([2]; combination of Acp A (3.9 μg/mL) with Vac): 0.065 µg/mL

C[C@H](C[C@@H](C)[C@H](C)O)C[C@H](C)C(=O)C1=C(O)/C(=C/c2ccccc2)NC1=O [Acp B, Arcopilin B]
MIC (B. subtilis DSM 10): 66.7 µg/mL (≈ 180 µM) | MIC B. subtilis (B. subtilis DSM 10): 66,7 | MIC (S. aureus DSM 346): 66.7 µg/mL (≈ 180 µM) | MIC S. aureus (S. aureus DSM 346): 66,7 | cytotoxic properties (in words) (two mammalian cell lines): weak or no cytotoxic effects

C/C(=C\c1csc(C)n1)[C@@H]1C[C@@H]2O[C@]2(C)CCC[C@H](C)[C@H](O)[C@@H](C)C(=O)C(C)(C)[C@@H](O)CC(=O)O1 [Epothilone B, reference compound]
IC50 (KB-3-1 (ACC 158); KB 3-1, read-out: IC50 against mammalian cell lines, KB-3-1): 0.0086 ng/mL (≈ 1.69e-05 µM) | IC50 (L929 (ACC 2); L929, read-out: IC50 against mammalian cell lines, L929): 0.086 ng/mL (≈ 0.000169 µM)

myceliothermophin E
antitumor activity against a number of human cancer cell lines (human cancer cell lines): potent antitumor activity

C[C@H](C[C@@H](C)[C@H](C)OC=O)C[C@H](C)C(=O)C1=C(O)/C(=C/c2ccccc2)NC1=O [Acp C, Arcopilin C]
efficacy toward preformed biofilms ([3]; at 3.9 μg/mL): 35–45% | effectiveness in the dispersal of preformed biofilms ([3]; between 7.8 μg/mL and 250 μg/mL): approximately 50% | disrupting effect on preformed biofilms (in words) ([3]; tested 250–2 μg/mL): most promising disrupting effects; also recorded: remarkable effectiveness | MIC (B. subtilis DSM 10): 33.3 µg/mL (≈ 83.4 µM) | MIC B. subtilis (B. subtilis DSM 10): 33,3 | IC50 (KB-3-1 (ACC 158); [6]): 800 ng/mL (≈ 2 µM) | IC50 (L929 (ACC 2); [7]): 1400 ng/mL (≈ 3.5 µM) | MIC (S. aureus DSM 346): 33.3 µg/mL (≈ 83.4 µM) | MIC S. aureus (S. aureus DSM 346): 33,3 | MIC (M. hiemalis DSM 2656): 66.7 µg/mL (≈ 167 µM) | MIC M. hiemalis (M. hiemalis DSM 2656): 66,7

C/C=C(\C)[C@@H]1C(C)=C[C@]2(C)C[C@H](C)CC[C@H]2[C@@H]1C(=O)C1=C[C@](Cc2ccccc2)(OC)NC1=O [chaetolivacine B]
antibacterial properties against MRSA [4]: moderate antibacterial properties | antibacterial properties against S. aureus (S. aureus): moderate antibacterial properties

C[C@@H](C[C@H](C)C(=O)C1=C(O)/C(=C/c2ccccc2)NC1=O)C[C@](C)(O)[C@@H](O)C(=O)O [Acp F, Arcopilin F]
antimicrobial activity (in words) [5]: did not exhibit any antimicrobial activity | cytotoxic properties (in words) (two mammalian cell lines): weak or no cytotoxic effects

C/C=C(\C)[C@H]1C(C)=C[C@@]2(C)C[C@@H](C)CC[C@@H]2[C@H]1C(=O)C1=C[C@@](CC(C)C)(OC)NC1=O [myceliothermophin C]
antitumor activity against a number of human cancer cell lines (human cancer cell lines): potent antitumor activity

C[C@@H](C[C@H](C)C(=O)C1=C(O)/C(=C/c2ccccc2)NC1=O)C[C@](C)(O)C(=O)CO [Acp E, Arcopilin E]
antimicrobial activity (in words) [5]: did not exhibit any antimicrobial activity | cytotoxic properties (in words) (two mammalian cell lines): weak or no cytotoxic effects

CN(C)[C@@H]1C(O)=C(C(N)=O)C(=O)[C@@]2(O)C(O)=C3C(=O)c4c(O)cccc4[C@@](C)(O)[C@H]3[C@H](O)[C@@H]12 [Oxytetracycline, reference compound]
MIC (B. subtilis DSM 10): 8.3 µg/mL (≈ 18 µM)

CC[C@H](C)C[C@@H](C)C[C@H](C)C(=O)C1=C(O)/C(=C/c2ccccc2)NC1=O [Acp D, Arcopilin D]
MIC (M. smegmatis ATCC 700084; Mycolicibacterium smegmatis, ATCC700084, ATCC 700084, – = no activity observed under test conditions): 66.7 µg/mL (≈ 188 µM) | MIC M. smegmatis (M. smegmatis ATCC 700084; supplement CSV, decimal comma, unit not given, in µg/mL): 66,7 | lowest concentration with significant dispersal effects [3]: 31.3 µg/mL | MIC (B. subtilis DSM 10): 4.2 µg/mL (≈ 11.8 µM) | MIC B. subtilis (B. subtilis DSM 10): 4,2 | IC50 (KB-3-1 (ACC 158); [6]): 800 ng/mL (≈ 2.25 µM) | IC50 (L929 (ACC 2); [7]): 1700 ng/mL (≈ 4.78 µM) | MIC (M. hiemalis DSM 2656): 66.7 µg/mL (≈ 188 µM) | MIC M. hiemalis (M. hiemalis DSM 2656): 66,7

C/C=C(\C)[C@H]1C(C)=C[C@@]2(C)C[C@@H](C)CC[C@@H]2[C@H]1C(=O)C1=C[C@](CC(C)C)(OC)NC1=O [myceliothermophin D]
antitumor activity against a number of human cancer cell lines (human cancer cell lines): potent antitumor activity
